# Patent publication US20090163578A1, “NOVEL MODIFICATION OF IMMUNOMODULATORY PROTEIN” (UNIVERSITY OF MEDICINE AND DENTISTRY OF NEW JERSEY, priority 2004, published 2009)
# pIC50: −log10 of the molar value.
# Biological target: T1, TRPM7/ChaK1 kinase domain (purified recombinant ChaK1-cat) (Mus musculus, UniProt Q923J1)
# T1 construct: Expression and purification of recombinant ChaK1 kinase domain was performed as described; made in house; host or cells: bacteria
# T1 sequence (Q923J1 1592-1822 limits assumed): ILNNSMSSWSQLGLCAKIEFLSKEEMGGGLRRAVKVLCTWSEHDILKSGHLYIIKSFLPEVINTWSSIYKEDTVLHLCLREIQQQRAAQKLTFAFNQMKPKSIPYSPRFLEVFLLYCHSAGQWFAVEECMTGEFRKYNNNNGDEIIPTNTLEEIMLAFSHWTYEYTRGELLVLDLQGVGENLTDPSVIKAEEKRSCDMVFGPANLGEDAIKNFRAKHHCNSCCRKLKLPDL
# Assay: ChaK1-cat kinase activity: phosphorylation of myelin basic protein with [γ-33P]ATP, SDS-PAGE and autoradiography
# Type: biochemical
# Protocol: The reaction was performed using purified recombinant ChaK1-cat and myelin basic protein. The samples were analyzed by SDS-PAGE and autoradiography; and
# The bands corresponding to phosphorylated myelin basic protein (on the autoradiogram shown in B) were quantified using the Kodak 1D imaging program.
# Protein samples were incubated in phosphorylation mixture consisting of 50 mM HEPES-KOH (pH 7.4), 10 mM MgCl2, 4 mM MnCl2, 0.5 mM CaCl2 (unless stated otherwise), 100 μM ATP, and 2 μCi of [γ-^33P]ATP (specific activity of 3000 Ci/mmol) with 0.1 μg of purified recombinant ChaK1. In assays involving annexin 0.5 μg of annexin was used. The reactions were run at 30° C. for 5 min and were terminated by incubation in an ice/water bath and addition of Laemmli sample buffer. Samples were boiled for 5 min and analyzed by SDS-PAGE and autoradiography.
# We analyzed the sensitivity of ChaK1 to some known inhibitors of conventional protein kinases.
SMILES,effect on the kinase activity of ChaK1 (concentrations up to 0.1 mM (FIG. 6B)),inhibitory effect on ChaK1 (staurosporine even at the concentration of 100 μM (FIG. 6B)),pIC50
CN[C@@H]1C[C@H]2O[C@@](C)([C@@H]1OC)n1c3ccccc3c3c4c(c5c6ccccc6n2c5c31)C(=O)NC4 [staurosporine],does not have any effect,did not produce any inhibitory effect,–
CC(=O)c1c(O)c(C)c(O)c(Cc2c(O)c3c(c(C(=O)/C=C/c4ccccc4)c2O)OC(C)(C)C=C3)c1O [rottlerin],–,–,~4.46
